Like-named read-outs stand apart in the source and are kept apart here.
How the values were obtained:
Assay type in all cases: biochemical
Human PDE4A3 = Human PDE4A3 (Homo sapiens (Human), UniProt P27815); assay: PDE4A3 Scintillation Proximity Assay (SPA), inhibition of enzyme activity; conditions: read-out: Human PDE4A FL
Description: (§1) The PDE4A, PDE4B, PDE4C and PDE4D binding affinity for the compounds of the present invention was determined utilizing the following biological assay(s):
(§2) The recombinant Bacmid was isolated and used to transfect insect cells to generate a viral stock. To generate cell paste for purification, insect cells were infected with the virus stock and cells were harvested 72 hours after infection. Insect cell paste was lysed and after centrifugation, the supernatant was batch bound to Ni-NTA agarose (GE Healthcare) and eluted with 250 mM imidazole. This eluate was diluted with FLAG buffer (50 mM Tris HCL pH 7.5, 100 mM NaCl, 5% Glycerol, 1 mM TCEP with protease inhibitors) and batch bound to ant-FLAG M2 agarose (Sigma) overnight at 4° C. The agarose was packed into a column, washed with buffer and eluted with buffer containing elute using 250 ug/ml Flag-peptide. Fractions were analyzed using SDS-PAGE Coomassie blue staining and pooled based on purity. Pooled fractions were chromatographed on a S200 120 ml column (GE Healthcare) in 50 mM Tris HCL pH 7.5, 150 mM NaCl, 10% Glycerol, 2 mM TCEP with protease inhibitors. PDE4A3 fractions were analyzed by SDS-PAGE Coomassie blue staining, pooled based on purity, dialyzed against 50 mM Tris HCL pH 7.5, 100 mM NaCl, 20% Glycerol, 2 mM TCEP, frozen and stored at −80° C.
(§3) The PDE4A3, PDE4B1, PDE4C1 and PDE4D3 assays use the Scintillation Proximity Assay (SPA) technology to measure the inhibition of human recombinant PDE4A1, PDE4B3, PDE4C1, and PDE4D3 enzyme activity by compounds in vitro. The PDE4A1, PDE4B3, PDE4C1, and PDE4D3 assays are run in parallel using identical parameters, except for the concentration of enzyme ([…]). The assays are performed in a 384-well format with 50 uL assay buffer (50 mM TRIS pH7.5; 1.3 mM MgCl2; 0.01% Brij) containing enough PDE4A3, PDE4B1, PDE4C1, and PDE4D to convert ˜20% of substrate (1 μM cAMP consisting of 20 nM 3H-cAMP+[…] cold cAMP) and a range of inhibitors. Reactions are incubated for 30 min at 25° C. The addition of 20 uL of 8 mg/ml yitrium silicate SPA beads (Perkin Elmer) stops the reaction. The plates are sealed (TopSeal, Perkin Elmer) and the beads are allowed to settle for 8 hrs, after which they are read on the Trilux Microbeta overnight.

Human PDE4B1 = Human PDE4B1 (Homo sapiens (Human), UniProt Q07343, S133E/S654A/S659A/S661A); assay: PDE4B1 Scintillation Proximity Assay (SPA), inhibition of enzyme activity; conditions: read-out: Human PDE4B FL
Chain of Human PDE4B1 (Q07343 122-736 S133E/S654A/S659A/S661A): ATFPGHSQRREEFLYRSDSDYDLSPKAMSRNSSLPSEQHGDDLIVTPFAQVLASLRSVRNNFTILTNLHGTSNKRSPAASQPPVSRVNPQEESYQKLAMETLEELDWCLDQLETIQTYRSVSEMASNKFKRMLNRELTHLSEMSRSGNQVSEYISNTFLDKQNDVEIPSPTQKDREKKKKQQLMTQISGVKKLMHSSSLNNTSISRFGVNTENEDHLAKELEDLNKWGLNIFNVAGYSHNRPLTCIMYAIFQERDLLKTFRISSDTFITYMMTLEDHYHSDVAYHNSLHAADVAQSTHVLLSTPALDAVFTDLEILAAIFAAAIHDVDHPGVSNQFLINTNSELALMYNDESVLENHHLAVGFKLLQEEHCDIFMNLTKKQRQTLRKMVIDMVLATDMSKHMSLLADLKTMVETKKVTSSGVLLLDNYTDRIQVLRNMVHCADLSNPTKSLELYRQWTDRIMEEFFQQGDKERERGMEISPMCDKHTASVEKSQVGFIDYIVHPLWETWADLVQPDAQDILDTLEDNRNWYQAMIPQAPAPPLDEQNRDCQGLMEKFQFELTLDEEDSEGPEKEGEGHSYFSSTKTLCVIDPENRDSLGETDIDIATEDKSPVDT
Summary of the method: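 His-tagged enzyme from baculovirus-infected insect cells, Ni-NTA purified. SPA with 1 μM cAMP (20 nM 3H-cAMP tracer) in 50 mM Tris pH 7.5, 1.3 mM MgCl2, 0.01% Brij, […] PDE4B enzyme for ~20% substrate conversion; 30 min at 25 °C, stopped with yttrium silicate beads, read after 8 h settling.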

Human PDE4C1 = Human PDE4C1 (Homo sapiens (Human), UniProt Q08493); assay: PDE4C1 Scintillation Proximity Assay (SPA), inhibition of enzyme activity; conditions: read-out: Human PDE4C FL
Chain of Human PDE4C1 (Q08493 2-712): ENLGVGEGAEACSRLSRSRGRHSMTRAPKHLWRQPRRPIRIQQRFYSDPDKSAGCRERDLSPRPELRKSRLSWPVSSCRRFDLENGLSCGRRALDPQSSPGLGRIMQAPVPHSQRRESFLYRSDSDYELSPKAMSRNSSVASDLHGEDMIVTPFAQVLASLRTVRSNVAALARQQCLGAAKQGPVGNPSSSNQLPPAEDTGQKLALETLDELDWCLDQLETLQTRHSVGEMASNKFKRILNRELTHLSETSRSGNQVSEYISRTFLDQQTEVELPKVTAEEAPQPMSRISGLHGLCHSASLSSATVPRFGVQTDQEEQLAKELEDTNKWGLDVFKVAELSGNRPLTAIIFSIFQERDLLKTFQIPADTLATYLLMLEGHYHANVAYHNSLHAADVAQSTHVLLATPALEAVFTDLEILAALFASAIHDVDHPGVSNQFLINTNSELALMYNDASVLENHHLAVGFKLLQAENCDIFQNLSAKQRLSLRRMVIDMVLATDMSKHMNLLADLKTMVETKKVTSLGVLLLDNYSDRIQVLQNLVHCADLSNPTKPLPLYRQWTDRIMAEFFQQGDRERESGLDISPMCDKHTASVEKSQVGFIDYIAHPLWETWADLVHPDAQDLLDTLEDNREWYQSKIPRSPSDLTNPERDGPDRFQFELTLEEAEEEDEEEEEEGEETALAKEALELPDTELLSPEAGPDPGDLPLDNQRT
Description: as §1
as §2, with “PDE4C1” for “PDE4A3”
as §3

human PDE4D3 = human PDE4D3 (Homo sapiens (Human), UniProt Q08499); assay: PDE4D3 Scintillation Proximity Assay (SPA), inhibition of enzyme activity; conditions: read-out: Human PDE4D FL
Chain of human PDE4D3 (Q08499 186-808): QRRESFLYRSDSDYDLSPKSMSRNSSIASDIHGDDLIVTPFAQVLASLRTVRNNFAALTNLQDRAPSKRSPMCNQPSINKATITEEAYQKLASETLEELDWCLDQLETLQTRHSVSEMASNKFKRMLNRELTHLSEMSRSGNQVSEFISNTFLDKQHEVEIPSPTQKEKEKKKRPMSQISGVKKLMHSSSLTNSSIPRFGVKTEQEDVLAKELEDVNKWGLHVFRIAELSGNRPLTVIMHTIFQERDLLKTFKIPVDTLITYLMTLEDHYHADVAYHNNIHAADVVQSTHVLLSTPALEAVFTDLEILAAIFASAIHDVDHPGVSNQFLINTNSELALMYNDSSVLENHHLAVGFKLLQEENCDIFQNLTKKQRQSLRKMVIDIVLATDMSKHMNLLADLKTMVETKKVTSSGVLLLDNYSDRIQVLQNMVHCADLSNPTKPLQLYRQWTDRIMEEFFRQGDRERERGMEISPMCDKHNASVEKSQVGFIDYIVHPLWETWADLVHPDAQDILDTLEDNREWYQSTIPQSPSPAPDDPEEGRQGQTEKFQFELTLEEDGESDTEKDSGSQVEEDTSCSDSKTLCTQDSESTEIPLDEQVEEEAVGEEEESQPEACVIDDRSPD
Summary of the method: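 His-tagged human PDE4D3 (aa 50–672), expressed in insect cells, hydrolysed 1 μM cAMP (3H tracer plus cold) for 30 min at 25° C in 50 mM Tris pH 7.5, 1.3 mM MgCl2 and 0.01% Brij. Enzyme level was set for ~20% conversion. Product was read by yttrium silicate SPA beads after 8 h settling.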

[1] = Table 10, geometric mean of 2-9 determinations unless otherwise indicated
[2] = Table 9, geometric mean of 2-9 determinations unless otherwise indicated

Chain of Human PDE4A3 (P27815 other isoform, or with tags, fused parts or gaps): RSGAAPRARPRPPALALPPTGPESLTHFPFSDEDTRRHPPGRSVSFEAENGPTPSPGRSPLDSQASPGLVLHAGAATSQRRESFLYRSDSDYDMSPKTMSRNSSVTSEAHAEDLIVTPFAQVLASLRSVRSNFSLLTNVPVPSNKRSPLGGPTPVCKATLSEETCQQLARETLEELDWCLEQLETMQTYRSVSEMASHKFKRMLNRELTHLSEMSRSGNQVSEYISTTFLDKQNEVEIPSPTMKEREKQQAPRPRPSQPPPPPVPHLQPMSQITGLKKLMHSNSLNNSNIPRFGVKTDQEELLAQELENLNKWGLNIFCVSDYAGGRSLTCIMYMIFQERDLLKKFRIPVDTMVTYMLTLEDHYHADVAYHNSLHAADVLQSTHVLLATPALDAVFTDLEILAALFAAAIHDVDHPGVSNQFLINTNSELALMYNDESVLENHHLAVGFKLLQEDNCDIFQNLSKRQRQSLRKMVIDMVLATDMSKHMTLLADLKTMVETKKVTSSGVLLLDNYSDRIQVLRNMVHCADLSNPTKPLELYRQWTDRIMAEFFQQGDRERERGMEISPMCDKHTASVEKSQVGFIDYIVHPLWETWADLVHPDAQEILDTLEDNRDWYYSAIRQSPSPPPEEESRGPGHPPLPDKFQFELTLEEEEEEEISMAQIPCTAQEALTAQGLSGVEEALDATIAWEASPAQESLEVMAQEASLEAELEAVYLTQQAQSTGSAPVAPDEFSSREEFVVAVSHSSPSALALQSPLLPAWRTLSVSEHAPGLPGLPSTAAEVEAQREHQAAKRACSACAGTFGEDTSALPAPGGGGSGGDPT

`Cc1nccc(-c2c3n(c4cccnc24)CCN(C2CC2)C3=O)n1` [Example 81, 8-Cyclopropyl-10-(2-methylpyrimidin-4-yl)-7,8-dihydropyrido [2′,3′:4,5] pyrrolo[1,2-a]pyrazin-9(6H)-one] gave an IC50 (Human PDE4A3; [1]) greater than 30000 nM, an IC50 (Human PDE4B1; [1]) greater than 30000 nM and an IC50 (Human PDE4C1; [1]) of 29700 nM. For the same compound, the IC50 (human PDE4D3; [1]) was greater than 30000 nM.
With `Cc1cc(Cl)c(F)cc1-c1c2c(n3c1C(=O)N(C1CC1)CC3)CCCO2` [Example 29, 10-(4-Chloro-5-fluoro-2-methylphenyl)-8-cyclopropyl-3,4,7,8-tetrahydro-2H-pyrano[2′,3′:4,5]pyrrolo[1,2-a]pyrazin-9(6H)-one] the IC50 (Human PDE4A3; [2]) was 1 nM, the IC50 (Human PDE4B1; [2]) was 1 nM and the IC50 (Human PDE4C1; [2]) was 2.45 nM. It also gave an IC50 (human PDE4D3; [2]) of 12.7 nM.
`COCCCCCCN1CCn2c(c(-c3ccc(Cl)cc3)c3ncccc32)C1=O` [Example 96, 10-(4-Chlorophenyl)-8-(6-methoxyhexyl)-7,8-dihydropyrido[2′,3′:4,5]pyrrolo[1,2-a]pyrazin-9(6H)-one] was tested, and the IC50 (Human PDE4A3; [1]) was 87.5 nM, the IC50 (Human PDE4B1; [1]) was 98.4 nM and the IC50 (Human PDE4C1; [1]) was 52.8 nM. For the same compound, the IC50 (human PDE4D3; [1]) was 137 nM.
Compound `O=C1c2c(-c3ccc(Cl)cc3)c3ncsc3n2CCN1C1CC1` [Example 27, 9-(4-Chlorophenyl)-7-cyclopropyl-6,7-dihydro[1,3]thiazolo[4′,5′:4,5]pyrrolo[1,2-a]pyrazin-8(5H)-one] has an IC50 (Human PDE4A3; [2]) of 2.28 nM, an IC50 (Human PDE4B1; [2]) of 3.04 nM and an IC50 (Human PDE4C1; [2]) of 9.03 nM. The IC50 (human PDE4D3; [2]) was 434 nM.
Work on `O=C1c2c(-c3ccc4c(c3)CCO4)c3ncccc3n2CCN1C1CC1` [Example 35, 8-Cyclopropyl-10-(2,3-dihydro-1-benzofuran-5-yl)-7,8-dihydropyrido[2′,3′:4,5]pyrrolo[1,2-a]pyrazin-9(6H)-one] yielded an IC50 (Human PDE4A3; [2]) of 2.08 nM, an IC50 (Human PDE4B1; [2]) of 4.15 nM and an IC50 (Human PDE4C1; [2]) of 5.52 nM. The IC50 (human PDE4D3; [2]) was 141 nM.
Compound `Cc1cc(C#N)c(F)cc1-c1c2n(c3scnc13)CCN(C1CC1)C2=O` [Example 28, 4-(7-Cyclopropyl-8-oxo-5,6,7,8-tetrahydro[1,3]thiazolo[4′,5′:4,5]pyrrolo[1,2-a]pyrazin-9-yl)-2-fluoro-5-methylbenzonitrile] has an IC50 (Human PDE4A3; [2]) of 3.92 nM, an IC50 (Human PDE4B1; [2]) of 2.14 nM and an IC50 (Human PDE4C1; [2]) of 21 nM. For the same compound, the IC50 (human PDE4D3; [2]) was 85.7 nM.
In the case of `N#Cc1ccc(-c2c3n(c4cccnc24)CCN(C2CC2)C3=O)c(F)c1` [Example 22, 4-(8-Cyclopropyl-9-oxo-6,7,8,9-tetrahydropyrido[2′,3′:4,5]pyrrolo[1,2-a]pyrazin-10-yl)-3-fluorobenzonitrile], the IC50 (Human PDE4A3; [2]) is reported as 7.47 nM, the IC50 (Human PDE4B1; [2]) is reported as 11.3 nM and the IC50 (Human PDE4C1; [2]) is reported as 20.2 nM. It also gave an IC50 (human PDE4D3; [2]) of 872 nM.
For `O=C1c2c(-c3cccc(F)c3)c3ncccc3n2CCN1C1CC1` [Example 41, 8-Cyclopropyl-10-(3-fluorophenyl)-7,8-dihydropyrido[2′,3′:4,5]pyrrolo[1,2-a]pyrazin-9(6H)-one], the IC50 (Human PDE4A3; [2]) was 1.26 nM, the IC50 (Human PDE4B1; [2]) was 2.38 nM and the IC50 (Human PDE4C1; [2]) was 9.22 nM. For the same compound, the IC50 (human PDE4D3; [2]) was 130 nM.
For `C[C@@H]1Cn2c(c(-c3ccc(Cl)cc3)c3ncccc32)C(=O)N1C1CC1` [Example 10, (7R)-10-(4-Chlorophenyl)-8-cyclopropyl-7-methyl-7,8-dihydropyrido[2′,3′:4,5]pyrrolo[1,2-a]pyrazin-9(6H)-one], the IC50 (Human PDE4A3; [2]) was 15.5 nM, the IC50 (Human PDE4B1; [2]) was 12.2 nM and the IC50 (Human PDE4C1; [2]) was 28.2 nM. For the same compound, the IC50 (human PDE4D3; [2]) was 768 nM.
With `N#Cc1ccc(-c2c3n(c4scnc24)CCN(C2CC2)C3=O)cc1F` [Example 72, 4-(7-Cyclopropyl-8-oxo-5,6,7,8-tetrahydro[1,3]thiazolo[4′,5′:4,5]pyrrolo[1,2-a]pyrazin-9-yl)-2-fluorobenzonitrile] the IC50 (Human PDE4A3; [2]) was 3.53 nM, the IC50 (Human PDE4B1; [2]) was 4.36 nM and the IC50 (Human PDE4C1; [2]) was 15.1 nM. It also gave an IC50 (human PDE4D3; [2]) of 90.4 nM.
Work on `CCNC(=O)N1CCn2c(c(-c3ccc(Cl)cc3)c3ncccc32)C1=O` [Example 80, 10-(4-Chlorophenyl)-N-ethyl-9-oxo-6,7-dihydropyrido[2′,3′:4,5]pyrrolo[1,2-a]pyrazine-8(9H)-carboxamide] yielded an IC50 (Human PDE4A3; [1]) of 44 nM, an IC50 (Human PDE4B1; [1]) of 66.2 nM and an IC50 (Human PDE4C1; [1]) of 106 nM. It also gave an IC50 (human PDE4D3; [1]) of 42.8 nM.

— patent US11472805B2, “Tricyclic compounds and their use as phosphodiesterase inhibitors” (Pfizer Inc., priority 2015, dated 2022)
